Source: PMC4138103 (PLoS ONE, 2014)
Like-named read-outs stand apart in the source and are kept apart here.

Test system: Sprague-Dawley rats
Assay: Bone biomechanics, three-point bending test of tibial shaft
Format: in vivo, Rattus norvegicus
Set-up: key to Dose response: Biomechanics, diaphysis, Yield Force: D: significant dose response (for results, see Table 2); T: significant trend
Conditions: for Emax: Rattus norvegicus; for F yield, CED / F yield, CED-L: total dose based
Experimental: For biomechanical testing hind limbs were defrosted and tibial shafts tested with a three-point bending test using a custom made testing apparatus, [34]. Each bone was placed on a support with a span length of 13 mm and bending load was applied with a constant speed of 0.155 mm/sec until failure. The breaking force, bending stiffness and yield force were defined from load-displacement data. Stiffness was calculated as the slope of the linear part of load-displacement curve. Yield force was defined as a corresponding force where the fit for stiffness separated from the measured load-displacement curve. The breaking force was defined as bending load at maximum. Corresponding to these forces also both failure and yield deformations were evaluated.
Data were also analyzed using the BMD method, which is based on dose-response modeling of the full data set using a nested family of exponential and Hill models. The analyses were done on data of males and females combined, using sex as a covariate. […] In that case, different Critical Effect Doses (CEDs) and CEDs at the lowest bound of the confidence interval (CED-L) were generated for each sex. If no difference between sexes is detected, a CED and CED-Ls for the combined data is generated. However, this was also done if the curve fits are close, and separate analyses for males and females were then performed manually. CEDs and CED-Ls were calculated at the predefined Critical Effect Size (CES) of 5% (EFSA standard) or 10%.

[1] = F, CES 5%, model E2, adipose tissue concentration based
[2] = F, CES 10%, model E2, adipose tissue concentration based
[3] = tibia, females, total dose 3 mg/kg bw
[4] = tibia, females, total dose 10 mg/kg bw
[5] = tibia, females, total dose 30 mg/kg bw
[6] = tibia, females, total dose 100 mg/kg bw
[7] = tibia, females, total dose 300 mg/kg bw
[8] = tibia, females, total dose 1000 mg/kg bw
[9] = tibia, females, total dose 1700 mg/kg bw
[10] = tibia, males, total dose 3 mg/kg bw
[11] = tibia, males, total dose 10 mg/kg bw
[12] = tibia, males, total dose 30 mg/kg bw
[13] = tibia, males, total dose 100 mg/kg bw
[14] = tibia, males, total dose 300 mg/kg bw
[15] = tibia, males, total dose 1000 mg/kg bw
[16] = tibia, males, total dose 1700 mg/kg bw

## Clc1cc(Cl)c(-c2cc(Cl)c(Cl)c(Cl)c2Cl)cc1Cl [PCB 180, 2,2′,3′,4,4′,5,5′-heptachlorobiphenyl]
[1]
  CED, F yield: 2860 µg/g lipid
  CED-L, F yield: 1647 µg/g lipid
[2]
  CED, F yield: 5880 µg/g lipid
  CED-L, F yield: 3384 µg/g lipid
F, model E2, controls vs high dose according to the fitted model, read-out: Maximum response, F yield
  Emax: -18.3%
females, controls vs high dose, fitted model, read-out: F yield, Maximum response
  Emax: -16.7%
females, CES 5%
  F yield, CED: 476 mg/kg bw
  F yield, CED-L: 266 mg/kg bw
females, CES 10%
  F yield, CED: 978 mg/kg bw
  F yield, CED-L: 547 mg/kg bw
females, adipose tissue concentration based
  Yield force of tibial shaft, CED: 2860 µg/g lipid
[3]
  Biomechanics, diaphysis: Ultimate Deformation: 0.601 mm
  Biomechanics, diaphysis: Ultimate Force: 108 N
  Biomechanics, diaphysis: Yield Deformation: 0.291 mm
  Biomechanics, diaphysis: Yield Force: 72.2 N
[4]
  Biomechanics, diaphysis: Ultimate Deformation: 0.634 mm
  Biomechanics, diaphysis: Ultimate Force: 106 N
  Biomechanics, diaphysis: Yield Deformation: 0.295 mm
  Biomechanics, diaphysis: Yield Force: 65.9 N
[5]
  Biomechanics, diaphysis: Ultimate Deformation: 0.763 mm
  Biomechanics, diaphysis: Ultimate Force: 112 N
  Biomechanics, diaphysis: Yield Deformation: 0.378 mm
  Biomechanics, diaphysis: Yield Force: 81.2 N
[6]
  Biomechanics, diaphysis: Ultimate Deformation: 0.622 mm
  Biomechanics, diaphysis: Ultimate Force: 100 N
  Biomechanics, diaphysis: Yield Deformation: 0.360 mm
  Biomechanics, diaphysis: Yield Force: 79.7 N
[7]
  Biomechanics, diaphysis: Ultimate Deformation: 0.640 mm
  Biomechanics, diaphysis: Ultimate Force: 104 N
  Biomechanics, diaphysis: Yield Deformation: 0.341 mm
  Biomechanics, diaphysis: Yield Force: 76.7 N
[8]
  Biomechanics, diaphysis: Ultimate Deformation: 0.645 mm
  Biomechanics, diaphysis: Ultimate Force: 105 N
  Biomechanics, diaphysis: Yield Deformation: 0.316 mm
  Biomechanics, diaphysis: Yield Force: 71.4 N
[9]
  Biomechanics, diaphysis: Ultimate Deformation: 0.691 mm
  Biomechanics, diaphysis: Ultimate Force: 109 N
  Biomechanics, diaphysis: Yield Deformation: 0.276 mm
  Biomechanics, diaphysis: Yield Force: 60.4 N
tibia, females, total doses 0-1700 mg/kg bw
  Dose response: Biomechanics, diaphysis, Yield Force: D
[10]
  Biomechanics, diaphysis: Ultimate Deformation: 0.888 mm
  Biomechanics, diaphysis: Ultimate Force: 123 N
  Biomechanics, diaphysis: Yield Deformation: 0.423 mm
  Biomechanics, diaphysis: Yield Force: 84.8 N
[11]
  Biomechanics, diaphysis: Ultimate Deformation: 0.727 mm
  Biomechanics, diaphysis: Ultimate Force: 131 N
  Biomechanics, diaphysis: Yield Deformation: 0.333 mm
  Biomechanics, diaphysis: Yield Force: 71.9 N
[12]
  Biomechanics, diaphysis: Ultimate Deformation: 0.704 mm
  Biomechanics, diaphysis: Ultimate Force: 122 N
  Biomechanics, diaphysis: Yield Deformation: 0.346 mm
  Biomechanics, diaphysis: Yield Force: 78.4 N
[13]
  Biomechanics, diaphysis: Ultimate Deformation: 0.786 mm
  Biomechanics, diaphysis: Ultimate Force: 130 N
  Biomechanics, diaphysis: Yield Deformation: 0.395 mm
  Biomechanics, diaphysis: Yield Force: 87.0 N
[14]
  Biomechanics, diaphysis: Ultimate Deformation: 0.758 mm
  Biomechanics, diaphysis: Ultimate Force: 132 N
  Biomechanics, diaphysis: Yield Deformation: 0.295 mm
  Biomechanics, diaphysis: Yield Force: 69.0 N
[15]
  Biomechanics, diaphysis: Ultimate Deformation: 0.772 mm
  Biomechanics, diaphysis: Ultimate Force: 120 N
  Biomechanics, diaphysis: Yield Deformation: 0.446 mm
  Biomechanics, diaphysis: Yield Force: 93.0 N
[16]
  Biomechanics, diaphysis: Ultimate Deformation: 0.769 mm
  Biomechanics, diaphysis: Ultimate Force: 118 N
  Biomechanics, diaphysis: Yield Deformation: 0.346 mm
  Biomechanics, diaphysis: Yield Force: 81.2 N
